Source: patent US11485736B2 (KSQ Therapeutics, Inc., priority 2018, dated 2022)

Molecular target: USP1/UAF1 (Homo sapiens (Human), UniProt O94782)
Test: Deubiquitination assay for USP1/UAF1 activity (ubiquitin-rhodamine 110)
Type: biochemical
Conditions: 0.05 nM USP1/UAF1, 150 nM ubiquitin-rhodamine
Protocol: Certain Compounds of the Disclosure were assessed for USP1/UAF1 activity in a Ubiquitin Rhodamine assay modified from those described previously.
Deubiquitinase activity was measured using ubiquitin-rhodamine 110 as a substrate. Cleavage of the amide bond between rhodamine and the c-terminal glycine of ubiquitin yields an increase in fluorescence signal. The assay was conducted in 20 ul total volume of assay buffer (50 mM Tris-HCl, pH 7.8, 0.5 mM EDTA, 0.01% Bovine Serum Albumin, 1 mM DTT, 0.01% Tween-20), and 0.05 nM USP1/UAF1 enzyme.
Compounds, dissolved in DMSO were tested in dose response format, beginning at 10 uM.
Compounds depicted below were added to enzyme/assay buffer mix and incubated 10 min.
Data for all assay formats was calculated as percent inhibition compared with control wells. […] IC50 values were calculated using the standard four parameter curve fitting algorithm in either Prism GraphPad (La Jolla, Calif.) software, or Collaborative Drug Discovery (Burlingame, Calif.) CDD Vault.

Sequence of USP1/UAF1 (O94782 whole entry): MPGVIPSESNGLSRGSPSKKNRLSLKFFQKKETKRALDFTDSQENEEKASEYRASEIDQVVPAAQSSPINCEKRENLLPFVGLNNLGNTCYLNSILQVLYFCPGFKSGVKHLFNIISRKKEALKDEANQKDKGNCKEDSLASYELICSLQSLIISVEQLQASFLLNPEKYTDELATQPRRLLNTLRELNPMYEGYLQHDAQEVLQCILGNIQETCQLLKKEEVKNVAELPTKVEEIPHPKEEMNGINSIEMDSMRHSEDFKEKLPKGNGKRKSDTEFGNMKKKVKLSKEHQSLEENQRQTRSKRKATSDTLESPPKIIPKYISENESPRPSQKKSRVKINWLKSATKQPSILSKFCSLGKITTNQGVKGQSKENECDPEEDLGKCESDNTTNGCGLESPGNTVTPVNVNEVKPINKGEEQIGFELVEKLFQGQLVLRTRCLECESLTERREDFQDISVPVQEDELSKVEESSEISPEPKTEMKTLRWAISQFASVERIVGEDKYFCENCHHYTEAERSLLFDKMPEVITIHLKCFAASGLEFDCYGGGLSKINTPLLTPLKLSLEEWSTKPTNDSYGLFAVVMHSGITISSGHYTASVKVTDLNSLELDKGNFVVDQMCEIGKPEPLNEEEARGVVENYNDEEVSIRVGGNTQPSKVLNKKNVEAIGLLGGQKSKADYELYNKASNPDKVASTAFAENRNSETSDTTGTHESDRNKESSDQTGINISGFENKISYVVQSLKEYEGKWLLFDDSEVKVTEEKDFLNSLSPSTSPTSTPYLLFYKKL
Sequence of USP1/UAF1 (Q8TAF3 whole entry partner): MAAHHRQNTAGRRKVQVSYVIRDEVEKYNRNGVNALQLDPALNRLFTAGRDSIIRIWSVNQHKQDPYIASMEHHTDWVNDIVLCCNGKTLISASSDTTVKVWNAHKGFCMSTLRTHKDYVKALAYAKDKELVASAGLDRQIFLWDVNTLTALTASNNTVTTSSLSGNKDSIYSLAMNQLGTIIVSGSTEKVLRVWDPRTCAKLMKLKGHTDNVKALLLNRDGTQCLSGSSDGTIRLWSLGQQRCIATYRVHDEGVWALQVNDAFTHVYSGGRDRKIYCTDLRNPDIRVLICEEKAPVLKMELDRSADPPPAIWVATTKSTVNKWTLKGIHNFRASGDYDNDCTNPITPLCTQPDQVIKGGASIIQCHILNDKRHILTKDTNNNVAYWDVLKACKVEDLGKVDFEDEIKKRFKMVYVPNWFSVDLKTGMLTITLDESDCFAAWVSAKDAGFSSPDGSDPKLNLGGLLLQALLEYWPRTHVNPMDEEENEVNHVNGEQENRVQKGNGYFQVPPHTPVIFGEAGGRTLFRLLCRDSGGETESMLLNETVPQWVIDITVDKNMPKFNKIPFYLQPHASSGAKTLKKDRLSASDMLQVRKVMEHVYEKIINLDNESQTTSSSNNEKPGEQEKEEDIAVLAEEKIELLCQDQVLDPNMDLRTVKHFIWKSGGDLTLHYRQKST

Row | SMILES | IC50 (Table 3) [nM] | further results
1 | COc1ncnc(C2(C)CC2)c1-c1ncc2cnn(Cc3ccc(-c4nc(C(F)(F)F)cn4C)cc3)c2n1 [drawing 769] | 10 to 100 | –
2 | COc1ncnc(C2CC2)c1-c1ncc2cnn(Cc3ccc(-c4nc(C(F)(F)F)cn4C)c(F)c3)c2n1 [drawing 746] | 10 to 100 | –
3 | COc1ncnc(C)c1-c1ncc2cnn(Cc3ccc(-n4nc(C(F)(F)F)cc4C)cc3)c2n1 [drawing 784] | 100 to 200 | –
4 | Cn1cc(C(F)(F)F)nc1-c1ccc(Cn2ncc3cnc(-c4c(C#N)ncnc4C4CC4)nc32)cc1 | 10 to 100 | –
5 | COc1cccc(C)c1-c1ncc2cnn(Cc3ccc(-c4nc(C(F)(F)F)cn4C)cc3)c2n1 [drawing 717] | – | IC50 (Table 2): 10 to 100 nM
6 | COc1ncnc(C2CC2)c1-c1ncc2cnn(Cc3ccc(-c4nc(C(F)(F)F)cn4C4COC4)cc3)c2n1 [drawing 770] | 10 to 100 | –
7 | COc1ncnc(C2CC2)c1-c1ncc2cnn(Cc3ccc(-c4nc(OC)n(C)n4)cc3)c2n1 | > 200 | –
8 | COc1ncnc(C(C)(C)C)c1-c1ncc2cnn(Cc3ccc(-c4nc(C(F)(F)F)cn4C)cc3)c2n1 [drawing 757] | 10 to 100 | –
9 | COc1ncnc(C(C)(C)F)c1-c1ncc2cnn(Cc3ccc(-c4nc(C(F)(F)F)cn4C)cc3)c2n1 [drawing 772] | 10 to 100 | –
10 | COc1ncnc(C2CC2)c1-c1ncc2cnn(Cc3ccc(-c4nc(C(F)F)n(C)n4)cc3)c2n1 | > 200 | –
11 | CCn1cc(C(F)(F)F)nc1-c1ccc([C@H](C)n2ncc3cnc(-c4c(OC)ncnc4C4CC4)nc32)cc1 (single isomer, unassigned) [drawing 751] | 10 to 100 | –
12 | Cc1cc(C(F)(F)F)nn1-c1ccc(Cn2ncc3cnc(-c4cccnc4C#N)nc32)cc1 [drawing 797] | > 200 | –
13 | COc1nccc(C#N)c1-c1ncc2cnn(Cc3ccc(-c4nc(C(F)(F)F)cn4C)cc3)c2n1 | – | IC50 (Table 2): 10 to 100 nM
14 | Cc1cc(C(F)(F)F)nn1-c1ccc(Cn2ncc3cnc(-c4cccnc4C(C)C)nc32)cc1 [drawing 713] | – | IC50 (Table 2): 10 to 100 nM
15 | COc1nc(C)nc(C2CC2)c1-c1ncc2cnn(Cc3ccc(-c4nc(C(F)(F)F)cn4C)cc3)c2n1 [drawing 760] | 10 to 100 | –
16 | COc1ccccc1-c1ncc2cnn(Cc3ccc(-c4nc(C(F)(F)F)cn4C)cc3)c2n1 [drawing 715] | – | IC50 (Table 2): 10 to 100 nM
17 | CCn1cc(C(F)(F)F)nc1-c1ccc(Cn2ncc3cnc(-c4c(OC5CC5)ncnc4C4CC4)nc32)cc1 [drawing 750] | 10 to 100 | –
18 | CCc1nc2cnc(-c3c(OC)ncnc3C3CC3)nc2n1Cc1ccc(-n2nc(C(F)(F)F)cc2C)cc1 [drawing 825] | – | IC50 (Table 4): 10 to 100 nM
19 | CCn1cc(C(F)(F)F)nc1-c1ccc(Cn2nc(SC)c3cnc(-c4c(OC)ncnc4C4CC4)nc32)cc1 [drawing 800] | – | IC50 (Table 4): 10 to 100 nM
20 | CCn1cc(C(F)(F)F)nc1-c1ccc(Cn2ncc3cnc(-c4c(OC)ncnc4OC)nc32)cc1 [drawing 755] | 10 to 100 | –
21 | Cn1cc(C(F)(F)F)nc1-c1ccc(Cn2ncc3cnc(-c4ccccc4S(C)(=O)=O)nc32)cc1 [drawing 707] | – | IC50 (Table 2): 100 to 200 nM
22 | COc1ncnc(C2CC2)c1-c1ncc2cnn(Cc3ccc(-c4nc(C(F)(F)F)c5n4CCNC5)cc3)c2n1 [drawing 773] | 10 to 100 | –
23 | CCn1cc(C(F)(F)F)nc1-c1ccc(Cn2ncc3cnc(-c4c(OCc5ccccc5)ncnc4C4CC4)nc32)cc1 | 100 to 200 | –

Row | SMILES | IC50 (Table 3) [nM] | further results
24 | COc1ncnc(C)c1-c1ncc2cnn(Cc3ccc(-n4nc(C(F)(F)F)cc4OC)cc3)c2n1 | 100 to 200 | –
25 | CC(C)c1ncccc1-c1ncc2cnn(Cc3ccc(-c4nc(C(F)(F)F)cn4C)cc3)c2n1 [drawing 721] | – | IC50 (Table 2): 10 to 100 nM
26 | CC(C)c1ccccc1-c1ncc2cnn(C(C)c3ccc(-c4nc(C(F)(F)F)cn4C)cc3)c2n1 (stereo not shown) [drawing 726] | – | IC50 (Table 2): < 10 nM
27 | Cn1cc(C(F)(F)F)nc1-c1ccc(Cn2ncc3cnc(-c4c(C5CC5)ncnc4N4CCC4)nc32)cc1 | > 200 | –
28 | COc1ncnc(C2CCC2)c1-c1ncc2cnn(Cc3ccc(-c4nc(C(F)(F)F)cn4C)cc3)c2n1 [drawing 749] | 10 to 100 | –
29 | CCn1cc(C(F)(F)F)nc1-c1ccc(Cn2ncc3cnc(-c4c(OC(C)(C)C)ncnc4C4CC4)nc32)cc1 [drawing 740] | 10 to 100 | –
30 | COc1ncnc(C2CC2)c1-c1ncc2cnn(Cc3ccc(-c4nc(C(F)(F)F)cn4C)cc3)c2n1 [drawing 720] | – | IC50 (Table 2): 10 to 100 nM
31 | [2H]C([2H])([2H])Oc1ncnc(C2CC2)c1-c1ncc2cnn(Cc3ccc(-c4nc(C(F)(F)F)cn4CC)cc3)c2n1 [drawing 744] | 10 to 100 | –
32 | COc1ncnc(C2CC2)c1-c1ncc2nc(C3CC3)n(Cc3ccc(-n4nc(C(F)(F)F)cc4C)cc3)c2n1 [drawing 822] | – | IC50 (Table 4): 10 to 100 nM
33 | COc1ncnc(C2CC2)c1-c1ncc2cnn(Cc3ccc(-c4nc(C(F)(F)F)n(C)n4)cc3)c2n1 [drawing 778] | 10 to 100 | –
34 | COc1ncnc(C2CC2)c1-c1ncc2cnn(Cc3ccc(-c4nc(C(F)F)nn4C)cc3)c2n1 | > 200 | –
35 | CCn1cc(C(F)(F)F)nc1-c1ccc(Cn2nc(OC)c3cnc(-c4c(OC)ncnc4C4CC4)nc32)cc1F [drawing 817] | – | IC50 (Table 4): 10 to 100 nM
36 | COc1cnccc1-c1ncc2cnn(Cc3ccc(-c4nc(C(F)(F)F)cn4C)cc3)c2n1 | – | IC50 (Table 2): > 200 nM
37 | Cn1cc(C(F)(F)F)nc1-c1ccc(Cn2ncc3cnc(-c4c(C5CC5)ncnc4N4CCCC4)nc32)cc1 | > 200 | –
38 | CCn1cc(C(F)(F)F)nc1-c1ccc(Cn2nc(SCc3ccc(OC)cc3)c3cnc(-c4c(OC)ncnc4C4CC4)nc32)cc1 [drawing 801] | – | IC50 (Table 4): 10 to 100 nM
39 | CCOc1ncnc(OCC)c1-c1ncc2cnn(Cc3ccc(-c4nc(C(F)(F)F)cn4CC)cc3)c2n1 [drawing 733] | < 10 | –
40 | COc1ncnc(C2CC2)c1-c1ncc2ccn(Cc3ccc(-c4nc(C(F)(F)F)cn4C(C)C)cc3)c2n1 | – | IC50 (Table 4): < 10 nM
41 | COc1ncnc(C2CC2)c1-c1ncc2ncn(Cc3ccc(-n4nc(C(F)(F)F)cc4C)cc3)c2n1 [drawing 830] | – | IC50 (Table 4): 100 to 200 nM
42 | COCc1nc2cnc(-c3c(OC)ncnc3C3CC3)nc2n1Cc1ccc(-c2nc(C(F)(F)F)cn2C(C)C)cc1 [drawing 804] | – | IC50 (Table 4): 10 to 100 nM
43 | COc1ncnc(C2CC2)c1-c1ncc2cnn(Cc3ccc(-c4nc(C(F)(F)F)c[nH]4)cc3)c2n1 [drawing 765] | 10 to 100 | –
44 | CNc1ncnc(C2CC2)c1-c1ncc2cnn(Cc3ccc(-c4nc(C(F)(F)F)cn4C)cc3)c2n1 | 10 to 100 | –
45 | COc1ncnc(C2CC2)c1-c1ncc2cnn(Cc3ccc(-c4nc(C(F)(F)F)cn4C)cc3F)c2n1 [drawing 758] | 10 to 100 | –
46 | COc1ncnc(C2CC2)c1-c1ncc2c(OC)nn([C@@H](C)c3ccc(-c4nc(C(F)(F)F)cn4C(C)C)cc3)c2n1 [drawing 814] | – | IC50 (Table 4): 10 to 100 nM

Row | SMILES | IC50 (Table 3) [nM] | further results
47 | CCn1cc(C(F)(F)F)nc1-c1ccc(Cn2ncc3cnc(-c4c(OC5CCC5)ncnc4C4CC4)nc32)cc1 [drawing 752] | 10 to 100 | –
48 | COc1ncnc(C2CC2)c1-c1ncc2cnn(Cc3ccc(-c4nc(C(F)(F)F)cn4C4CN(C)C4)cc3)c2n1 [drawing 775] | 10 to 100 | –
49 | Cc1ncnc(N(C)C)c1-c1ncc2cnn(Cc3ccc(-n4nc(C(F)(F)F)cc4C)cc3)c2n1 | > 200 | –
50 | COCCOc1ncnc(C)c1-c1ncc2cnn(Cc3ccc(-n4nc(C(F)(F)F)cc4C)cc3)c2n1 [drawing 789] | > 200 | –
51 | CCn1c(-c2ccc(Cn3nc(OC)c4cnc(-c5c(OC)ncnc5C5CC5)nc43)cc2)nc(C(F)(F)F)c1Br [drawing 811] | – | IC50 (Table 4): 10 to 100 nM
52 | Cc1nc(-c2ccccc2C(C)C)nc2c1cnn2Cc1ccc(-c2nc(C(F)(F)F)cn2C)cc1 | – | IC50 (Table 2): < 10 nM
53 | CC(C)c1ccccc1-c1ncc2cnn(Cc3ccc(-c4nc(C(F)(F)F)cn4C)cc3)c2n1 [drawing 730] | – | IC50 (Table 2): < 10 nM
54 | COc1ncnc(C2CC2)c1-c1ncc2ncn(Cc3ccc(-c4nc(C(F)(F)F)cn4C)cc3)c2n1 [drawing 831] | – | IC50 (Table 4): 100 to 200 nM
55 | COc1ncnc(C2CC2)c1-c1ncc2nc(C)n(Cc3ccc(-c4nc(C(F)(F)F)cn4C)cc3)c2n1 [drawing 821] | – | IC50 (Table 4): 100 to 200 nM
56 | COc1ncnc(C2CC2)c1-c1ncc2cnn(Cc3ccc(-n4nc(C(F)(F)F)cc4C)cc3)c2n1 [drawing 723] | – | IC50 (Table 2): < 10 nM
57 | CCn1cc(C(F)(F)F)nc1-c1ccc([C@H](C)n2nc(OC)c3cnc(-c4c(OC)ncnc4C4CC4)nc32)cc1 [drawing 813] | – | IC50 (Table 4): 10 to 100 nM
58 | CCOc1ncnc(C2CC2)c1-c1ncc2cnn(Cc3ccc(-c4nc(C(F)(F)F)cn4C)cc3)c2n1 [drawing 763] | 10 to 100 | –
59 | CCOc1cc(C(F)(F)F)nn1-c1ccc(Cn2ncc3cnc(-c4c(OC)ncnc4C4CC4)nc32)cc1 [drawing 735] | < 10 | –
60 | COc1ncnc(C2CC2)c1-c1ncc2nc(C)n(Cc3ccc(-n4nc(C(F)(F)F)cc4C)cc3)c2n1 [drawing 827] | – | IC50 (Table 4): 10 to 100 nM
61 | COc1ncnc(C2CC2)c1-c1ncc2cnn([C@@H](C)c3ccc(-c4nc(C(F)(F)F)cn4C)cc3)c2n1 (single isomer, unassigned) [drawing 743] | 10 to 100 | –
62 | COc1ncnc(C)c1-c1ncc2cnn(Cc3ccc(-c4nc(C(F)(F)F)cn4C)cc3)c2n1 [drawing 712] | – | IC50 (Table 2): 10 to 100 nM
63 | CSc1ncnc(C)c1-c1ncc2cnn(Cc3ccc(-n4nc(C(F)(F)F)cc4C)cc3)c2n1 [drawing 779] | 10 to 100 | –
64 | CCn1cc(C(F)(F)F)nc1-c1ccc(Cn2ncc3cnc(-c4c(OC(F)F)ncnc4C4CC4)nc32)cc1 [drawing 731] | < 10 | –
65 | CCn1cc(C(F)(F)F)nc1-c1ccc(Cn2nc(OC)c3cnc(-c4c(OC)ncnc4C4CC4)nc32)cc1 [drawing 819] | – | IC50 (Table 4): 10 to 100 nM
66 | CCn1cc(C(F)(F)F)nc1-c1ccc(Cn2ncc3cnc(-c4c(C5CC5)cnn4CC)nc32)cc1 [drawing 771] | 10 to 100 | –
67 | CC(C)c1ccccc1-c1ncc2cnn(Cc3ccc(-c4nc(C(F)(F)F)cn4C4CN(C)C4)cc3)c2n1 [drawing 725] | – | IC50 (Table 2): < 10 nM
